From patent US20150057354A1, “METHOD OF MAINTAINING OR IMPROVING TACTICAL PERFORMANCE AND COGNITIVE FUNCTION THROUGH DIETARY SUPPLEMENTATION” (Natural Alternatives International, Inc., priority 2013, published 2015)
Like-named read-outs stand apart in the source and are kept apart here.

Experiments:
[1] = Study 1: vertical jump power (five countermovement jumps) after 4-km run; conditions: at Post
[2] = 1-min Sprint
Procedure: (§1) Data collection occurred before (PRE) and following (POST) 30 days of supplementation. During each session participants performed military relevant tasks that included a 2.5 km run, a 1-min sprint, and a 50-m casualty carry. In addition, participants performed repeated 30-m sprints in combat gear (combat vest with ammunition, helmet, and assault rifle). Between each sprint soldiers were tested on marksmanship. Immediately following the final sprint and target shooting, participants performed a 2-min serial subtraction test on the firing range to assess cognitive function under stressful conditions (continuous shooting). These assessments were based upon previously published investigations examining military performance responses during stressful conditions (Nindl, Leone et al. 2002, Harman, Gutekunst et al. 2008).
(§2) These tests simulated a rapid approach to the battlefield. […] During the run and sprint all participants were dressed in shorts, T-shirt and running shoes. Both the run and sprint were performed on an asphalt road. All participants were provided with an individual global positioning system (GPS) that they wore in a vest underneath their shirt. The GPS unit (MinimaxX, V4.3, Catapult Innovations, Victoria, Australia) was positioned in a posterior pocket on the vest situated between the participant's right and left scapula in the upper-thoracic spine region. Information on velocity patterns was recorded during the 2.5 run, as well as total distance run during the 1-min sprint. During the 2.5 km run the velocity of the run was divided into three operationally distinct thresholds and defined as low speed (2.50 m˜s^−1-3.60 m˜s^−1), moderate speed (3.61 m·s^−1-4.43 m·s^−1) or high speed (>4.44 m·sec^−1). In addition, the average velocity and average heart rate during the 2.5 km run were also downloaded from the GPS receiver/transmitters.
During the 1-min sprint peak velocity, average velocity, total distance, total distance within 90% of peak velocity, and percent decline was downloaded from the GPS receiver/transmitters. All data were collected at 10 Hz and all analyses were performed with the system software provided by the manufacturer.
(§3) Participants in the supplement group were provided with 2 tablets of sustained-release β-alanine at a dose of (2 g per serving) three times per day (total β-alanine intake was 6 g per day) and subjects in the placebo group were provided with an equivalent amount of rice powder. Participants were instructed to consume the supplement following their meals with water. […] Supplementation occurred every day over a 30-day period.

[3] = for Average Sprint Time / Fatigue rate: Repeat 30-m Sprints
Procedure: as §1, §3

[4] = 2.5 km run
From the text: (§4) Eighteen male soldiers from an elite combat unit volunteered to participate in this double-blind study. […] Screening for performance enhancing drug use and additional supplementation was accomplished via a health questionnaire completed during participant recruitment. Participants were from the same unit, but were from three different squads. Volunteers from each squad were randomly assigned to one of two groups. The randomization procedure involved that each volunteer from the same squad to be alternatively assigned to each group. […] The first group (BA; age 19.6±0.5 years; height: 1.76±0.05 m; body mass: 72.1±4.5 kg) consumed 6.0 g of β-alanine per day, while the second group (PL; age 20.2±1.0 years; height: 1.79±0.08; body mass: 76.4±6.1 kg) consumed 6 g of placebo (rice flour). During the 30-day study period all participants from all squads participated in the same advanced military training tasks that included combat skill development, physical work under pressure, navigational training, self-defense/hand-to-hand combat and conditioning.
as §1, §2, §3

[5] = 30 days, 6 g per day, sustained-release tablets
From the text: as §4
Participants in the supplement group were provided with 2 tablets of sustained-release β-alanine at a dose of (2 g per serving) three times per day (total β-alanine intake was 6 g per day) and subjects in the placebo group were provided with an equivalent amount of rice powder. […]

[6] = for High Running Velocity (>4.4 m · sec^−1): distance run at high velocity; for Low-Moderate Running Velocity (<4.4 m · sec^−1): distance run at low to moderate velocity
From the text: Twenty male soldiers from a special operations unit of the Israel Defense Force (IDF) volunteered to participate in this study to examine the effect of 28 days of beta-alanine ingestion on physical, tactical, psychomotor and cognitive performance in military personnel. Following an explanation of all procedures, risks and benefits, each participant provided their informed consent to participate in the study. The Helsinki committee of the IDF Medical Corps approved the research protocol. […] Screening for performance enhancing drug use and additional supplementation was accomplished via a health questionnaire completed during participant recruitment. All participants were from the same unit, but were from three different squads. Volunteers from each squad were randomly assigned to one of two groups. The first group; (BA; 20.1±0.7 years; height: 1.79±0.07 m; weight: 78.3±9.7 kg) consumed 6.0 g of β-alanine per day, while the second group (PL; 20.2±1.1 years; height: 1.80±0.05; weight: 79.6±7.8 kg) consumed 6 g of placebo (rice flour). There were an equal number of participants from each squad that were randomly assigned to either BA or PL.
(§5) Each session required all participants to perform a 4 km run dressed in shorts, T-shirt and running shoes. Immediately following the 4 km run, participants performed five countermovement jumps.
All participants were provided with an individual global positioning system (GPS) that they wore in a vest underneath their shirt. The GPS unit (MinimaxX, V4.3, Catapult Innovations, Victoria, Australia) was positioned in a posterior pocket on the vest situated between the participant's right and left scapula in the upper-thoracic spine region. Information on velocity patterns was recorded during the 4 km run. Peak velocity, mean velocity, distance covered running at slow-moderate speed (<4.44 m·sec-1), distance covered running at high speed (4.44+m·sec-1), and the percent of total distance run at slow-moderate and high speeds were downloaded from the GPS receiver/transmitters. Data was collected at 10 Hz and all analysis was performed with the system software provided by the manufacturer.
(§6) Participants in the supplement group were provided with 2 tablets of sustained-release β-alanine at a dose of 2 g per serving three times per day (total β-alanine intake was 6 g per day) and subjects in the placebo group were provided with an equivalent amount of rice powder. […] Supplementation occurred over a 28 day period.
Data were analyzed using a 2×2 [treatment (BA, PL) X time (pretest, posttest)] mixed factorial ANOVA.

[7] = β-alanine taken as a free amino acid; some individuals; cited from earlier work
[8] = 30 days, 6 g per day; p=0.048
Procedure: Carnosine content of all participants was assessed by proton magnetic resonance spectroscopy (MRS) in the gastrocnemius muscle. All studies were performed on a 3-T system (Ingenia, Philips Medical Systems, Best, The Netherlands). Single-voxel, STEAM acquisitions of the gastrocnemius medialis muscle of the lower leg were carried out using a transmit-receive (16-channel) coil. In the leg the scan parameters were TR/TM/TE=2000/12/13 ms. Second-order shimming was used giving a full-width-half-maximum line width of approximately 25 Hz in the calf muscle. Water suppression was achieved by applying two bandwidth selective rf pulses. […] The spectra were analyzed using the Philips SpectroView software.
A 1-litre solution of 20 mM L-carnosine (Sigma-Aldrich) in 0.1M potassium phosphate buffer (pH=7.2) was used as an external reference phantom for absolute quantification. […]
The T1, T2 values for the phantom and muscle were taken from Baguet and colleagues (2010). The correction for the coil loading was calculated according to the method previously described (Soher, van Zijl et al. 1996).
Data was analyzed using a 2×2 [treatment (BA, PL) X time (PRE, POST)] repeated measures analysis of variance. […] POST-PRE (A) performance changes were analyzed using an unpaired t test. […] As such, comparisons A carnosine content was analyzed using the non-parametric independent samples median test. […]

[9] = four weeks of ingestion, dosages similar to the present one (Hill et al., 2007); cited from earlier work
[10] = From the text: as §5
Targets were set at a 40-m distance from the firing line and were all headshots. Each shot that hit the target was considered accurate. Twenty targets were set up on the range. All participants were notified prior to the start of data collection which target they were required to shoot at. Immediately following the 120-m sprint, participants continued onto the shooting range and shot 5 times while standing and 5 times from a kneeling position with their assault rifle. Participants were requested to shoot rapidly and accurately. While shooting, each participant was required to handle a misfire in their weapon. The misfire was prearranged by the investigative team, which involved placing an empty bullet into weapon's magazine (weapon's ammunition storage and feeding device). This required the participant to recognize and correct the misfire and continue to deliver fire at the designated target. The designed misfire was set to increase the stress of the shooting, with the participants already fatigued from the 4 km run, jumps and sprint with full gear. The number of accurate shots and the time required to perform these shots was recorded.
as §6

[11] = Pre to Post; p=0.844, ES=0.003
From the text: as §5, §6

[12] = 4-km run, POST (28 days, 6 g per day)

## NCCC(=O)O [BA, β-alanine]
[1]
  vertical jump relative mean power: 14.1±1.7 w·kg-1
[1]; p=0.034, ES=0.27
  vertical jump relative peak power vs PL: significantly greater
[1]; p=0.139, ES 0.14
  relative mean power, percent greater than PL: 10.2%
[2]; POST
  Average Velocity: 5.09 ± 0.36 m · s^−1
  Distance Run at 90% Peak Velocity: 58.5 ± 7.7
  Fatigue rate: 30.9 ± 6.7%
  Peak Velocity: 6.57 ± 0.18 m · s^−1
  total distance run: 302.4±21.2 m
[2]; PRE
  Average Velocity: 5.21 ± 0.28 m · s^−1
  Distance Run at 90% Peak Velocity: 69.5 ± 4.1
  Fatigue rate: 32.5 ± 5.5%
  Peak Velocity: 6.68 ± 0.36 m · s^−1
  total distance run: 310.0±16.7 m
[3]; 30 days, 6 g per day, p=0.044
  Δ time for the 50-m casualty carry vs PL: significantly (p=0.044) improved
[3]; 30 days, p=0.022
  serial subtraction test under stress vs placebo: significantly improve performance
[3]; POST
  Average Sprint Time: 8.00 ± 0.29 s
  Fatigue rate: 91.8 ± 3.0%
[3]; PRE
  Average Sprint Time: 7.42 ± 0.24 s
  Fatigue rate: 91.6 ± 4.8%
[4]; POST
  Average Heart Rate: 165.7 ± 6.1 beats · min^−1
  Average Velocity: 4.09 ± 0.25 m · s^−1
  Distance Run at High Intensity: 23.9 ± 20.1%
  Distance Run at Low Intensity: 10.7 ± 14.0%
  Distance Run at Moderate Intensity: 65.1 ± 14.8%
[4]; POST (30 days, 6 g per day)
  Time: 629 ± 23.8 s
[4]; PRE
  Average Heart Rate: 156.8 ± 15.5 beats · min^−1
  Average Velocity: 3.97 ± 0.17 m · s^−1
  Distance Run at High Intensity: 18.4 ± 12.4%
  Distance Run at Low Intensity: 12.3 ± 12.0%
  Distance Run at Moderate Intensity: 69.8 ± 12.1%
  Time: 624 ± 22.6 s
[5]
  adverse events: No adverse events were reported
[6]; 4-km run, POST
  % Distance run at High Running Velocity: 25.4 ± 18.0%
  % Distance run at Low to Moderate Running Velocity: 74.3 ± 18.3%
  High Running Velocity (>4.4 m · sec^−1): 1009 ± 675
  Low-Moderate Running Velocity (<4.4 m · sec^−1): 2957 ± 672
[6]; [12]
  Average Velocity: 4.13 ± 0.27 m · sec^−1
  Peak Velocity: 5.46 ± 0.26 m · sec^−1
[6]; 4-km run, PRE
  % Distance run at High Running Velocity: 29.3 ± 16.1%
  % Distance run at Low to Moderate Running Velocity: 70.8 ± 16.2%
  Average Velocity: 4.25 ± 0.22 m · sec^−1
  High Running Velocity (>4.4 m · sec^−1): 1166 ± 610
  Low-Moderate Running Velocity (<4.4 m · sec^−1): 2811 ± 605
[6]; 4-km run, PRE (before supplementation), mean ± SD
  Peak Velocity: 5.84 ± 0.63 m · sec^−1
[6]; 4-km run, Post, not statistically significant
  difference between BA and PL in the distance run at a high velocity: 34.9%
[6]; POST
  4K Run Time: 962.6 ± 65.0 s
[6]; PRE
  4K Run Time: 942.4 ± 39.3 s
[7]
  duration of flushing/tingling of the skin: less than 60 minutes
[8]
  Δ carnosine content within the gastrocnemius muscle vs PL: Significant elevations
[9]
  elevation of muscle carnosine concentrations: 60%
[10]; BA faster than PL, not statistically different
  difference between the groups in time to perform 10 shots: 24.8%
[10]; Post, PL 37.7±13.9 sec, p=0.161
  time to perform 10 shots: 30.2 ± 5.8 s
[10]; at Post, of 10 shots, 40-m targets, p=0.012 vs PL
  number of shots on target: 8.2±1.0
[11]
  serial subtraction test, BA vs PL: no significant interactions
